Laboratory results taken from the NIST ThermoML archive (doi:10.1021/je300873x).

Assay: mn = molality of the nth substance listed, in mol/kg
Conditions: for surface tension liquid-gas: Pendant drop shape; for electrical conductivity: Liquid, Digital conductivity meter

CCCCCCCCCCCC[N+](C)(CCO)CCO.[Br-] [N,N-bis(2-hydroxyethyl)-N-methyldodecan-1-aminium bromide] + O
Conditions	electrical conductivity [S/m]	surface tension liquid-gas [mN/m]
298.15 K, m1 = 0.00097	–	68.8
298.15 K, m1 = 0.00193	–	62.75
298.15 K, m1 = 0.00387	–	54.86
298.15 K, m1 = 0.0058	–	48.7
298.15 K, m1 = 0.00773	–	45.46
298.15 K, m1 = 0.0095	0.0822	–
298.15 K, m1 = 0.00967	–	41.58
298.15 K, m1 = 0.00997	0.0859	–
298.15 K, m1 = 0.0105	0.0903	–
298.15 K, m1 = 0.01108	0.0948	–
298.15 K, m1 = 0.0116	–	39.54
298.15 K, m1 = 0.01174	0.0998	–
298.15 K, m1 = 0.01247	0.1051	–
298.15 K, m1 = 0.01257	–	38.9
298.15 K, m1 = 0.01287	0.1075	–
298.15 K, m1 = 0.0133	0.1097	–
298.15 K, m1 = 0.01376	0.1114	–
298.15 K, m1 = 0.01425	0.1126	–
298.15 K, m1 = 0.0145	–	38.74
298.15 K, m1 = 0.01478	0.1144	–
298.15 K, m1 = 0.01535	0.1155	–
298.15 K, m1 = 0.01596	0.1171	–
298.15 K, m1 = 0.01644	–	38.53
298.15 K, m1 = 0.01663	0.119	–
298.15 K, m1 = 0.01735	0.1209	–
298.15 K, m1 = 0.01814	0.1227	–
298.15 K, m1 = 0.01901	0.1245	–
298.15 K, m1 = 0.01956	–	38.53
298.15 K, m1 = 0.01996	0.1268	–
298.15 K, m1 = 0.0291	–	38.45
298.15 K, m1 = 0.04849	–	38.36
303.15 K, m1 = 0.00949	0.091	–
303.15 K, m1 = 0.00996	0.0952	–
303.15 K, m1 = 0.01049	0.0996	–
303.15 K, m1 = 0.01107	0.1049	–
303.15 K, m1 = 0.01172	0.1117	–
303.15 K, m1 = 0.01245	0.1161	–
303.15 K, m1 = 0.01285	0.1192	–
303.15 K, m1 = 0.01328	0.1216	–
303.15 K, m1 = 0.01374	0.1236	–
303.15 K, m1 = 0.01423	0.1258	–
303.15 K, m1 = 0.01476	0.127	–
303.15 K, m1 = 0.01533	0.1296	–
303.15 K, m1 = 0.01594	0.1313	–
303.15 K, m1 = 0.01661	0.1328	–
303.15 K, m1 = 0.01733	0.1347	–
303.15 K, m1 = 0.01812	0.1365	–
303.15 K, m1 = 0.01898	0.1386	–
303.15 K, m1 = 0.01993	0.141	–
308.15 K, m1 = 0.00994	0.1048	–
308.15 K, m1 = 0.01047	0.1099	–
308.15 K, m1 = 0.01105	0.1157	–
308.15 K, m1 = 0.0117	0.1216	–
308.15 K, m1 = 0.01243	0.1282	–
308.15 K, m1 = 0.01283	0.1315	–
308.15 K, m1 = 0.01326	0.1349	–
308.15 K, m1 = 0.01372	0.1375	–
308.15 K, m1 = 0.01421	0.1402	–
308.15 K, m1 = 0.01473	0.1421	–
308.15 K, m1 = 0.0153	0.1447	–
308.15 K, m1 = 0.01591	0.1463	–
308.15 K, m1 = 0.01658	0.1485	–
308.15 K, m1 = 0.0173	0.151	–
308.15 K, m1 = 0.01809	0.153	–
308.15 K, m1 = 0.01895	0.1563	–
308.15 K, m1 = 0.0199	0.1591	–
313.15 K, m1 = 0.01045	0.1198	–
313.15 K, m1 = 0.01103	0.1258	–
313.15 K, m1 = 0.01168	0.1323	–
313.15 K, m1 = 0.01241	0.14	–
313.15 K, m1 = 0.01281	0.1439	–
313.15 K, m1 = 0.01324	0.1478	–
313.15 K, m1 = 0.01369	0.1515	–
313.15 K, m1 = 0.01418	0.155	–
313.15 K, m1 = 0.01471	0.1577	–
313.15 K, m1 = 0.01527	0.1602	–
313.15 K, m1 = 0.01589	0.1631	–
313.15 K, m1 = 0.01655	0.1654	–
313.15 K, m1 = 0.01727	0.168	–
313.15 K, m1 = 0.01805	0.1707	–
313.15 K, m1 = 0.01891	0.1726	–
318.15 K, m1 = 0.01043	0.1298	–
318.15 K, m1 = 0.01101	0.1366	–
318.15 K, m1 = 0.01165	0.1438	–
318.15 K, m1 = 0.01238	0.1522	–
318.15 K, m1 = 0.01278	0.1567	–
318.15 K, m1 = 0.01321	0.1612	–
318.15 K, m1 = 0.01367	0.166	–
318.15 K, m1 = 0.01415	0.1704	–
318.15 K, m1 = 0.01468	0.1739	–
318.15 K, m1 = 0.01524	0.177	–
318.15 K, m1 = 0.01585	0.1806	–
318.15 K, m1 = 0.01651	0.1838	–
318.15 K, m1 = 0.01723	0.1864	–
318.15 K, m1 = 0.01802	0.1895	–
318.15 K, m1 = 0.01887	0.1932	–
318.15 K, m1 = 0.01983	0.1976	–
323.15 K, m1 = 0.0104	0.1411	–
323.15 K, m1 = 0.01098	0.1472	–
323.15 K, m1 = 0.01163	0.1554	–
323.15 K, m1 = 0.01236	0.1644	–
323.15 K, m1 = 0.01275	0.169	–
323.15 K, m1 = 0.01318	0.1743	–
323.15 K, m1 = 0.01363	0.1794	–
323.15 K, m1 = 0.01412	0.1851	–
323.15 K, m1 = 0.01465	0.1902	–
323.15 K, m1 = 0.01521	0.1949	–
323.15 K, m1 = 0.01582	0.1998	–
323.15 K, m1 = 0.01648	0.2018	–
323.15 K, m1 = 0.01719	0.2068	–
323.15 K, m1 = 0.01798	0.2118	–
323.15 K, m1 = 0.01883	0.2128	–
323.15 K, m1 = 0.01977	0.2199	–
